Each block holds one compound with its values, some of them ahead of it. Activity calls are given as the source filed them. No cut-off for these calls is given here.
Legend:
Integrin alpha-V/beta-6 [1] = target: T1, Integrin alpha-V/beta-6 (Homo sapiens, UniProt P06756+P18564); experiment: Competitive binding affinity to human Integrin alphaVbeta6 incubated for 1 hrs in presence of […] of TGF-beta1 by ELISA based spectrophotometric analysis; format: protein-complex assay
Integrin alpha-5/beta-1 [2] = target: T2, Integrin alpha-5/beta-1 (Homo sapiens, UniProt P05556+P08648); experiment: Competitive binding affinity to human Integrin alpha5beta1 incubated for 1 hrs in presence of fibronectin by ELISA based spectrophotometric analysis; format: protein-complex assay
Integrin alpha-V/beta-3 [3] = target: T3, Integrin alpha-V/beta-3 (Homo sapiens, UniProt P05106+P06756); experiment: Competitive binding affinity to human Integrin alphaVbeta3 incubated for 1 hrs in presence of vitronectin by ELISA based spectrophotometric analysis; format: protein-complex assay
[4] = Drug localization in cell membrane of human RKO cells overexpressing integrin alpha5beta1 at 1 uM measured within 3 mins by CellMask green staining based fluorescence analysis; format: ADME, cell membranes; details: 0.05 h
[5] = Drug uptake in human RKO cells overexpressing integrin alpha5beta1 at 1 uM measured at 60 to 300 mins by Hoechst 33342 staining based fluorescence analysis; format: ADME, cell-based; details: time 60-300 min
[6] = Drug localization in cell membrane of human RKO cells overexpressing integrin alpha5beta1 at 1 uM measured at 30 mins by CellMask green staining based fluorescence analysis; format: ADME, cell membranes; details: 0.5 h
[7] = Drug uptake in human M21 cells overexpressing integrin alphaVbeta3 at 1 uM measured at 60 to 300 mins by Hoechst 33342 staining based fluorescence analysis; format: ADME, cell-based; details: m21, 1 µM, time 60-300 min
Integrin alpha-V/beta-3 [8] = target: T3, Integrin alpha-V/beta-3; experiment: Agonist activity at integrin alphaVbeta3 in human M21 cells assessed as increase in p-FAK expression at 1 to 1000 nM incubated for 5 to 60 mins by Western blot analysis; format: cell-based; details: dose 1-1000 nM, time 5-60 min
Integrin alpha-5/beta-1 [9] = target: T2, Integrin alpha-5/beta-1; experiment: Agonist activity at integrin alpha5beta1 in human OV-MZ-6 cells assessed as increase in FAK expression at 1 nM incubated for 5 to 60 mins by Western blot analysis; format: cell-based; details: filed as agonist, time 5-60 min
Integrin alpha-5/beta-1 [10] = target: T2, Integrin alpha-5/beta-1; experiment: Agonist activity at integrin alpha5beta1 in human OV-MZ-6 cells assessed as fold increase in p-FAK expression at 1 nM incubated for 5 mins by Western blot analysis (reference value: 1); format: cell-based; details: filed as agonist
OV-MZ-6 [11] = experiment: Inhibition of cell migration in human OV-MZ-6 cells expressing integrin alpha5beta1 assessed as delay in wound gap closure at 1 to 1000 nM measured after 72 hrs by wound scratch assay; format: functional, cell-based; details: dose 1-1000 nM
M21 [12] = experiment: Inhibition of cell migration in human M21 cells expressing integrin alphaVbeta3 assessed as cell coverage at 1 uM measured within 72 hrs by wound scratch assay (reference value: 95 %); format: functional; set-up: scale not given: the % may be the effect or the level left
M21 [13] = experiment: Inhibition of cell adhesion in human M21 cells expressing integrin alphaVbeta3 at 1 nM measured after 48 hrs by microscopic imaging analysis; format: functional, cell-based
Integrin alpha-V/beta-3 [14] = target: T3, Integrin alpha-V/beta-3; experiment: Agonist activity at integrin alphaVbeta3 in human M21 cells assessed as fold increase in FAK expression at 1 uM incubated for 24 hrs by Western blot analysis; format: cell-based; details: filed as agonist
M21 [15] = experiment: Inhibition of cell adhesion in human M21 cells expressing integrin alphaVbeta3 at 1 uM measured after 48 hrs by microscopic imaging analysis; format: functional, cell-based
M21 [16] = experiment: Inhibition of cell migration in human M21 cells expressing integrin alphaVbeta3 assessed as delay in wound gap closure at 1 nM measured after 9 to 72 hrs by wound scratch assay; format: functional, cell-based; details: time 9-72 hrs
Integrin alpha-V/beta-3 [17] = target: T3, Integrin alpha-V/beta-3; experiment: Agonist activity at integrin alphaVbeta3 in human M21 cells assessed as increase in FAK expression at 1 nM incubated for 5 to 60 mins by Western blot analysis; format: cell-based; details: filed as agonist, time 5-60 min
Integrin alpha-5/beta-1 [18] = target: T2, Integrin alpha-5/beta-1; experiment: Agonist activity at integrin alpha5beta1 in human OV-MZ-6 cells assessed as fold increase in p-ERK1/2 expression at 1 uM incubated for 24 hrs by Western blot analysis; format: cell-based; details: filed as agonist
Integrin alpha-5/beta-1 [19] = target: T2, Integrin alpha-5/beta-1; experiment: Agonist activity at integrin alpha5beta1 in human OV-MZ-6 cells assessed as fold increase in FAK expression at 1 uM incubated for 24 hrs by Western blot analysis (reference value: 1); format: cell-based; details: filed as agonist
Integrin alpha-V/beta-3 [20] = target: T3, Integrin alpha-V/beta-3; experiment: Agonist activity at integrin alphaVbeta3 in human M21 cells assessed as increase in p-FAK expression at 1 uM incubated for 24 hrs by Western blot analysis; format: cell-based
Integrin alpha-V/beta-3 [21] = target: T3, Integrin alpha-V/beta-3; experiment: Agonist activity at integrin alphaVbeta3 in human M21 cells assessed as increase in FAK expression at 1 uM incubated for 5 to 60 mins by Western blot analysis; format: cell-based; details: time 5-60 min
Integrin alpha-5/beta-1 [22] = target: T2, Integrin alpha-5/beta-1; experiment: Agonist activity at integrin alpha5beta1 in human OV-MZ-6 cells assessed as increase in p-FAK expression at 1 nM measured after 60 mins by Western blot analysis; format: cell-based
Integrin alpha-5/beta-1 [23] = target: T2, Integrin alpha-5/beta-1; experiment: Agonist activity at integrin alpha5beta1 in human OV-MZ-6 cells assessed as increase in p-FAK expression at 1 uM incubated for 24 hrs by Western blot analysis; format: cell-based
Integrin alpha-V/beta-6 [24] = target: T1, Integrin alpha-V/beta-6; experiment: Agonist activity at integrin alphaVbeta6 in human HN cells assessed as fold increase in p-FAK expression at 1 nM measured within 30 mins by Western blot analysis (reference value: 1); format: cell-based; details: filed as agonist
Integrin alpha-5/beta-1 [25] = target: T2, Integrin alpha-5/beta-1; experiment: Agonist activity at integrin alpha5beta1 in human OV-MZ-6 cells assessed as fold increase in p-FAK expression at 1 nM measured after 5 to 60 mins by Western blot analysis (reference value: 1); format: cell-based; details: filed as agonist, time 5-60 min
HN [26] = experiment: Effect on cell migration in human HN cells expressing alphaVbeta6 at 1 to 1000 nM measured after 48 hrs by microscopic imaging analysis; format: functional, cell-based; details: dose 1-1000 nM
Integrin alpha-V/beta-3 [27] = target: T3, Integrin alpha-V/beta-3; experiment: Agonist activity at integrin alphaVbeta3 in human M21 cells assessed as increase in ERK1/2 expression at 1 uM incubated for 24 hrs by Western blot analysis; format: cell-based
Integrin alpha-5/beta-1 [28] = target: T2, Integrin alpha-5/beta-1; experiment: Agonist activity at integrin alpha5beta1 in human OV-MZ-6 cells assessed as increase in FAK expression at 1 to 1000 nM measured after 5 to 60 mins by Western blot analysis; format: cell-based; details: dose 1-1000 nM, time 5-60 min
Integrin alpha-V/beta-6 [29] = target: T1, Integrin alpha-V/beta-6; experiment: Agonist activity at integrin alphaVbeta6 in human HN cells assessed as fold increase in p-FAK expression at 1 uM measured within 30 mins by Western blot analysis (reference value: 1); format: cell-based; details: filed as agonist
Integrin alpha-V/beta-3 [30] = target: T3, Integrin alpha-V/beta-3; experiment: Agonist activity at integrin alphaVbeta3 in human M21 cells assessed as increase in FAK expression at 1 uM incubated for 24 hrs by Western blot analysis; format: cell-based
Integrin alpha-V/beta-3 [31] = target: T3, Integrin alpha-V/beta-3; experiment: Agonist activity at integrin alphaVbeta3 in human M21 cells assessed as increase in p-ERK1/2 expression at 1 uM incubated for 24 hrs by Western blot analysis; format: cell-based
Integrin alpha-V/beta-6 [32] = target: T1, Integrin alpha-V/beta-6; experiment: Agonist activity at integrin alphaVbeta6 in human HN cells assessed as increase in FAK expression at 1 to 1000 nM measured within 60 mins by Western blot analysis; format: cell-based; details: filed as agonist, dose 1-1000 nM
OV-MZ-6 [33] = experiment: Inhibition of cell migration in human OV-MZ-6 cells expressing integrin alpha5beta1 assessed as delay in wound gap closure at 1 to 1000 nM measured immediately by wound scratch assay; format: functional, cell-based; details: dose 1-1000 nM
Integrin alpha-5/beta-1 [34] = target: T2, Integrin alpha-5/beta-1; experiment: Agonist activity at integrin alpha5beta1 in human OV-MZ-6 cells assessed as increase in FAK expression at 1 uM incubated for 24 hrs by Western blot analysis; format: cell-based
Integrin alpha-5/beta-1 [35] = target: T2, Integrin alpha-5/beta-1; experiment: Agonist activity at integrin alpha5beta1 in human OV-MZ-6 cells assessed as increase in ERK1/2 expression at 1 uM incubated for 24 hrs by Western blot analysis; format: cell-based
Integrin alpha-5/beta-1 [36] = target: T2, Integrin alpha-5/beta-1; experiment: Agonist activity at integrin alpha5beta1 in human OV-MZ-6 cells assessed as increase in p-ERK1/2 expression at 1 uM incubated for 24 hrs by Western blot analysis; format: cell-based
HN [37] = experiment: Effect on cell migration in human HN cells expressing integrin alphaVbeta6 at 1 to 1000 nM measured after 9 to 24 hrs by wound scratch assay; format: functional, cell-based; details: dose 1-1000 nM, time 9-24 hrs

SMILES: CC(C)C[C@H](NC(=O)[C@H](CO)NC(=O)[C@H](CC(=O)O)NC(=O)[C@H](CC(C)C)NC(=O)[C@H](CC(=O)O)NC(=O)[C@@H](NC(=O)[C@@H](N)CCCNC(=N)N)[C@@H](C)O)C(=O)N[C@@H](CCCNC(=N)N)C(=O)N[C@H](C(=O)O)[C@@H](C)O
IC50 (Integrin alpha-V/beta-6 [1]): 29.5 nM
IC50 (Integrin alpha-5/beta-1 [2]): > 1000 nM
IC50 (Integrin alpha-V/beta-3 [3]): > 1000 nM

Drug uptake [4]: Active
Drug uptake [5]: Active
Drug uptake [6]: Active
Drug uptake [7]: Not_active
SMILES: Cc1cc(OCCCNC(=O)CCCCCNC(=O)CCCCC[N+]2=C(/C=C/C=C/C=C3/N(C)c4ccc5ccccc5c4C3(C)C)C(C)(C)c3c2ccc2ccccc32)cc(C)c1C(=O)N[C@@H](CNC(=O)CNC(=O)c1cccc(NC(=N)N)c1)C(=O)O

Activity (Integrin alpha-V/beta-3 [8]): inactive
Activity (Integrin alpha-5/beta-1 [9]): Active; Slight Increase Observed
fold change (FC) (Integrin alpha-5/beta-1 [10]): 2
fold change (FC) (Integrin alpha-V/beta-3 [14]): 2
Activity (Integrin alpha-V/beta-3 [17]): Active
fold change (FC) (Integrin alpha-5/beta-1 [18]): 2.4
fold change (FC) (Integrin alpha-5/beta-1 [19]): 1.7
Activity (Integrin alpha-V/beta-3 [20]): inactive
Activity (Integrin alpha-V/beta-3 [21]): inactive
Activity (Integrin alpha-5/beta-1 [22]): inactive
SMILES: C#CCCC(=O)NCCCOc1ccc(C(=O)N[C@H](CC(=O)O)Cc2ccc(OCCCNc3cc(OC)ccn3)cc2)cc1
inhibition (OV-MZ-6 [11]): Active
Activity (M21 [12]): 80%
inhibition (M21 [13]): inactive
inhibition (M21 [15]): Active
inhibition (M21 [16]): inactive

Activity (Integrin alpha-5/beta-1 [23]): inactive
fold change (FC) (Integrin alpha-V/beta-6 [24]): 5
fold change (FC) (Integrin alpha-5/beta-1 [25]): 2.9
IC50 (Integrin alpha-V/beta-6 [1]): 0.28 nM
Activity (Integrin alpha-V/beta-3 [27]): inactive
Activity (Integrin alpha-5/beta-1 [28]): inactive
fold change (FC) (Integrin alpha-V/beta-6 [29]): 6
Activity (Integrin alpha-V/beta-3 [30]): inactive
Activity (Integrin alpha-V/beta-3 [31]): inactive
Activity (Integrin alpha-V/beta-6 [32]): Active; Slight Increase Observed
Activity (Integrin alpha-5/beta-1 [34]): inactive
Activity (Integrin alpha-5/beta-1 [35]): inactive
Activity (Integrin alpha-V/beta-3 [20]): inactive
Activity (Integrin alpha-5/beta-1 [36]): inactive
IC50 (Integrin alpha-V/beta-3 [3]): > 1000 nM
SMILES: CC(C)C[C@@H]1NC(=O)[C@H](CC(=O)O)NC(=O)CNC(=O)[C@H](CCCNC(=N)N)NC(=O)[C@H](Cc2ccccc2)NC(=O)[C@H](CCCCN)N(C)C(=O)[C@H]2CCCN2C(=O)[C@H](Cc2ccccc2)NC(=O)[C@H](C)NC1=O
inhibition (OV-MZ-6 [11]): inactive
Activity (HN [26]): inactive
inhibition (OV-MZ-6 [33]): Active
Activity (HN [37]): inactive

Source: ChEMBL document CHEMBL6153109, “Switching Roles─Exploring Concentration-Dependent Agonistic versus Antagonistic Behavior of Integrin Ligands” (J Med Chem, 2025)
